According to ChEMBL document CHEMBL1201862, “PubChem BioAssay data set” (2004):
Calls of active or inactive are those of the source.

Legend:
[1] = biological target: 5-hydroxytryptamine receptor 2A (Mus musculus, UniProt P35363); assay type: functional, cell-based;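 also: CHO-K1 cells with tagged receptor and beta-arrestin; agonist potency measured as compound-induced activation of the receptor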
Mu-type opioid receptor = Mu-type opioid receptor (Homo sapiens, UniProt P35372); assay type: functional, cell-based;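 also: U2OS cells with beta-arrestin recruitment to OPRM1 by beta-gal complementation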
[2] = biological target: T1, Fructose-bisphosphate aldolase (Mycobacterium tuberculosis, UniProt P9WQA3); experiment: Fluorescence-based biochemical high throughput dose response assay for inhibitors of the fructose-bisphosphate aldolase (FBA) of M. tuberculosis.; assay type: functional
T1 sequence (P9WQA3 whole entry): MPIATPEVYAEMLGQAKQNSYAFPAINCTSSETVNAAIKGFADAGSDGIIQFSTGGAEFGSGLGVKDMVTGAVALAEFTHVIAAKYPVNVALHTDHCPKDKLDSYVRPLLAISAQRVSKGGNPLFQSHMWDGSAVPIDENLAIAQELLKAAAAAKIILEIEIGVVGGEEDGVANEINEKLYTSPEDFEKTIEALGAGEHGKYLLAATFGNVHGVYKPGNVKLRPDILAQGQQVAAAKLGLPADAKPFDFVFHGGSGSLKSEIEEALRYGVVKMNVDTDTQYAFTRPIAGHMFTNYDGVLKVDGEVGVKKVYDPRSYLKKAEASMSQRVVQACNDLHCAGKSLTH

Beta-galactosidase = Beta-galactosidase (Escherichia coli, UniProt Q8VNN2); experiment: Dose response counterscreen for EBI2 assay utilizing the enzyme, b-galactosidase.; assay type: functional
Cytochrome P450 2C9 = Cytochrome P450 2C9 (Homo sapiens, UniProt P11712)
Estrogen receptor = biological target: T2, Estrogen receptor (Homo sapiens, UniProt P03372); experiment: potentiators of ERα–SRC-1 coactivator binding, dose response, biochemical, TR-FRET, ERα LBD (AID 737)
T2 sequence (P03372 whole entry): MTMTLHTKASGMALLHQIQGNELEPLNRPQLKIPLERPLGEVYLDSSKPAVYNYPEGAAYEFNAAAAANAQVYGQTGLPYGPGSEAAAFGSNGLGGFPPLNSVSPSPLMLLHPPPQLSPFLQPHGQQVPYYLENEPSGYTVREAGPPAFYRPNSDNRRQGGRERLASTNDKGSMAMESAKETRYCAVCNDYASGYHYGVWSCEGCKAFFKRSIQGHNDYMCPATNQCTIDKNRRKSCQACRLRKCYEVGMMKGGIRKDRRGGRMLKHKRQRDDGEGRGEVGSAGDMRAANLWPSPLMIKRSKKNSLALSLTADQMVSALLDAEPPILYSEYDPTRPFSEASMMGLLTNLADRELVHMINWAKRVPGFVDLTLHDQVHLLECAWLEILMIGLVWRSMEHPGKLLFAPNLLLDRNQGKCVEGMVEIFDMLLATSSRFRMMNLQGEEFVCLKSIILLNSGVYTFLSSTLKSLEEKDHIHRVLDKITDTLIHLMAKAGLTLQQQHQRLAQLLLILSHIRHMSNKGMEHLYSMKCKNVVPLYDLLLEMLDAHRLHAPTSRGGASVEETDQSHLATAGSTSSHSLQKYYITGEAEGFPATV

[3] = cytotoxicity in HPDE-C7 cells, cell-based, fluorescence, HTS (AID 430); assay type: functional; settings: Homo sapiens
[4] = cytotoxicity in KRAS-transformed pancreatic duct cells, primary screen, cell-based, fluorescence, HTS (AID 431); assay type: functional; settings: Homo sapiens;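 also: cell line used: HPDE-C7K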
H9c2 = experiment: cells; assay type: functional, cell-based; settings: Rattus norvegicus, H9c2, Myocardium
Streptokinase A = biological target: T3, Streptokinase A (Streptococcus pyogenes serotype M1, UniProt P10520); experiment: S. pyogenes streptokinase expression inhibitors, potency, dose response, plasminogen activation absorbance, OD405 (AID 1914); assay type: functional, Streptococcus pyogenes M1 GAS;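 also: secreted streptokinase activity via plasminogen activation per viability signal from cell pellet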
T3 sequence (P10520 whole entry): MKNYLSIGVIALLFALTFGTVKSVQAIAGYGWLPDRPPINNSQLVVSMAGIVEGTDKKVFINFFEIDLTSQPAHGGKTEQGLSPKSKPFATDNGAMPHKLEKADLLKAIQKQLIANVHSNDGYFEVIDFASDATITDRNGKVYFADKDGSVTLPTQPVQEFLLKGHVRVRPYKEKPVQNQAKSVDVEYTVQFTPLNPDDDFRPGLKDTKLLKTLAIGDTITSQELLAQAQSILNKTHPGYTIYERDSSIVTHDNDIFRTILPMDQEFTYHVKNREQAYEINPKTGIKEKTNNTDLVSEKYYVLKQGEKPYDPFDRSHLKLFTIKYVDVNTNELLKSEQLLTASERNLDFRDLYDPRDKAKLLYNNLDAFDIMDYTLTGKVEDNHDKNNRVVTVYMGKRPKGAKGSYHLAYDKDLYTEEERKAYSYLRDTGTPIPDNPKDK

[5] = biological target: Heat shock protein HSP 90-alpha (Homo sapiens, UniProt P07900); assay type: functional, organism-based
Streptococcus = experiment: Group A Streptococcus viability loss, dose response, counter-screen for streptokinase expression inhibitor project, luminescence, BacTiterGlo (AID 1915); assay type: functional, organism-based;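 also: potency for reduction of bacterial viability or growth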
[6] = system: Streptococcus sp. 'group A'; experiment: growth inhibition of control SK(-) GAS strain, dose response, counter-screen for streptokinase expression inhibitor project, luminescence, kanamycin, BacTiterGlo, confirmation (AID 1900); assay type: functional, organism-based
HEK293 [7] = experiment: cells; assay type: functional, cell-based; settings: Homo sapiens
[8] = microbe, parasite or virus in culture; assay type: functional; settings: Mycobacterium tuberculosis
[9] = biological target: Nucleotide-binding oligomerization domain-containing protein 2 (Homo sapiens, UniProt Q9HC29); experiment: NOD2 signaling inhibitors, cell-based, luminescence, uHTS, HEK293 (AID 1566); assay type: functional
HEK293 [10] = experiment: NOD2 signaling inhibitors in MDP-stimulated cells, cell-based, uHTS, luminescence (AID 2001); assay type: functional; settings: Homo sapiens
HEK293 [11] = experiment: cells; assay type: functional, cell-based; settings: Homo sapiens; remark: listed apart in the source
HEK293 [12] = experiment: cells; assay type: functional, cell-based; settings: Homo sapiens; remark: listed apart in the source
HEK293 [13] = experiment: NOD1 signaling inhibitors, primary screen, cell-based, luminescence, uHTS (AID 1578); assay type: functional; settings: Homo sapiens
[14] = biological target: T4, Oxysterols receptor LXR-beta (Homo sapiens, UniProt P55055); assay type: functional, cell-based;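 also: agonist activity at LXR measured by a cell-based luminescence readout across a dose range, run as a counterscreen for daf-12 agonists; HEK293 cells with Gal4-LXR fusion and GAL4-driven luciferase reporter; potency for activation of Gal4-LXR reporter so compounds are agonists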
T4 sequence (P55055 whole entry): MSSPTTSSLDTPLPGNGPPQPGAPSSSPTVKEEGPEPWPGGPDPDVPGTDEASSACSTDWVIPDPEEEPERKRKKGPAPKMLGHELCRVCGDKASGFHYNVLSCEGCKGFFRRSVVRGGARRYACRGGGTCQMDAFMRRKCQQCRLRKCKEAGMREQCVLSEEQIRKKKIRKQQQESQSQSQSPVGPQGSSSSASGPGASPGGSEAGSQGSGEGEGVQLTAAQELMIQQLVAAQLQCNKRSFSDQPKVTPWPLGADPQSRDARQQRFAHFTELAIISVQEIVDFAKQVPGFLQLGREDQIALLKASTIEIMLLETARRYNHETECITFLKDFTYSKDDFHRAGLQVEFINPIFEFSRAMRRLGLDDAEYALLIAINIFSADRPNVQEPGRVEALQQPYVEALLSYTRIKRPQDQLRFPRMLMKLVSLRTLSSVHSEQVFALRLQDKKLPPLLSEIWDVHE

[15] = inhibitors of HIV Env-driven cell fusion, dose response, cherry-pick (AID 652057); assay type: functional, cell-based
[16] = THP-1 cell cytotoxicity, dose response, cytotoxicity control for non-replicating M. tuberculosis project (AID 489025); assay type: functional
[17] = ZM109 Env clade C HIV-1 fusion inhibitors, dose response, HeLa effector, CEM target cells, luciferase, cherry-pick (AID 652058); assay type: functional, cell-based
[18] = CEM21 lymphoblast cell cytotoxicity, dose response, cytotoxicity control for viral fusion inhibitor project, CellTiter-Glo luminescence, cherry-picked (AID 652042); assay type: functional, cell-based;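 also: potency for signal decrease meaning cytotoxicity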
[19] = off-target signal loss in HeLa-CEM21 co-culture – HeLa F-luc CTL cells, cherry-picked, counter-screen for HIV-1 Env fusion inhibitor project, dose response (AID 652040); assay type: functional, cell-based;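 also: potency for signal decrease marking cytotoxic or nonspecific inhibition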
[20] = inhibitors of clade B AD8 Env fusion, dose response, cell-based, cherry-pick (AID 652062); assay type: functional;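 also: luciferase signal from cell-cell fusion driven by HIV-1 clade B AD8 Env; potency is for inhibitors of fusion seen as a drop in luminescence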
cells [21] = assay type: functional, cell-based
cells [22] = assay type: functional, cell-based; remark: listed apart in the source
[23] = biological target: T5, Trace amine-associated receptor 1 (Homo sapiens, UniProt Q96RJ0); experiment: Fluorescence-based cell-based high throughput dose response assay to identify agonists of the human trace amine associated receptor 1 (TAAR1).; assay type: functional
T5 sequence (Q96RJ0 whole entry): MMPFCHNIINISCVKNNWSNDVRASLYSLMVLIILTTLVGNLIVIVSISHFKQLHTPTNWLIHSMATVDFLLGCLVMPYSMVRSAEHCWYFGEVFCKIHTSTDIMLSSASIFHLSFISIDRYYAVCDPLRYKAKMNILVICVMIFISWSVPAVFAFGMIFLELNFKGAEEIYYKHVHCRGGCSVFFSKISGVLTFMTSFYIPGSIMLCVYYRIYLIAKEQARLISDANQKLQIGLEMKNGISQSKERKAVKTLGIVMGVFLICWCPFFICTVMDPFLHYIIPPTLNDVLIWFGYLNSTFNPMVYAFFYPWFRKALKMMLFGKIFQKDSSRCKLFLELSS

[24] = biological target: T5, Trace amine-associated receptor 1; experiment: Counterscreen for agonists of the human trace amine associated receptor 1 (hTAAR1): Fluorescence-based cell-based high throughput dose response assay to identify hTAAR1 agonist that also desensitize TAAR1 receptor response.; assay type: functional
[25] = P. falciparum Dd2 growth inhibitors, dose response, SYBR Green, dry powder samples, set 9 (AID 1159568); assay type: functional, cell-based
[26] = intracellular Trypanosoma cruzi inhibitors in host cells – cell-based, plate reader, cherry-pick samples, set 3, dose response (AID 651818); assay type: functional;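 also: compounds incubated with infected cells for about four days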

Chain of 5-hydroxytryptamine receptor 2A (P35363 whole entry): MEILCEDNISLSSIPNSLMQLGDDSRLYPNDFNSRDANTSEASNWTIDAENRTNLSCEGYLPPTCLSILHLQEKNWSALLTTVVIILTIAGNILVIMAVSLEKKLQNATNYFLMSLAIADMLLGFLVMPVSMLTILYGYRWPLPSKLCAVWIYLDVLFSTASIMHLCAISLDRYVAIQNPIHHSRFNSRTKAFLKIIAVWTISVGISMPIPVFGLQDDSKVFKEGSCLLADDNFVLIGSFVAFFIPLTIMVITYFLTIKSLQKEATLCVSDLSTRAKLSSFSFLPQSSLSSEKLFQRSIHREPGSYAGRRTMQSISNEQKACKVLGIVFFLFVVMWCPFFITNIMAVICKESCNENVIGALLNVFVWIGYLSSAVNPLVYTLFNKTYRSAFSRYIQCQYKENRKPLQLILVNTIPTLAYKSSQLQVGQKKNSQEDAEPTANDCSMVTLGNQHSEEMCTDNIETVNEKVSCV
Chain of Mu-type opioid receptor (P35372 whole entry): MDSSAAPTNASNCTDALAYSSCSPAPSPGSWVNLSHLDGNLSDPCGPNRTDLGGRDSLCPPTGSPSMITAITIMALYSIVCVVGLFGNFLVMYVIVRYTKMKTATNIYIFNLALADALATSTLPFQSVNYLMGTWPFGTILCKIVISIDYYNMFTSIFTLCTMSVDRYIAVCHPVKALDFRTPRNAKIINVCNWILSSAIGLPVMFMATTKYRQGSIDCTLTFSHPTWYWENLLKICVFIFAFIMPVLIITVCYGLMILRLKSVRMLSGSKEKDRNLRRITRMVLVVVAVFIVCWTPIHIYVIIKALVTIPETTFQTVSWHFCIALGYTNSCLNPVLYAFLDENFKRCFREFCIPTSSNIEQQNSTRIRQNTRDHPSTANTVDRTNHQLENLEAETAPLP
Chain of Beta-galactosidase (Q8VNN2 whole entry): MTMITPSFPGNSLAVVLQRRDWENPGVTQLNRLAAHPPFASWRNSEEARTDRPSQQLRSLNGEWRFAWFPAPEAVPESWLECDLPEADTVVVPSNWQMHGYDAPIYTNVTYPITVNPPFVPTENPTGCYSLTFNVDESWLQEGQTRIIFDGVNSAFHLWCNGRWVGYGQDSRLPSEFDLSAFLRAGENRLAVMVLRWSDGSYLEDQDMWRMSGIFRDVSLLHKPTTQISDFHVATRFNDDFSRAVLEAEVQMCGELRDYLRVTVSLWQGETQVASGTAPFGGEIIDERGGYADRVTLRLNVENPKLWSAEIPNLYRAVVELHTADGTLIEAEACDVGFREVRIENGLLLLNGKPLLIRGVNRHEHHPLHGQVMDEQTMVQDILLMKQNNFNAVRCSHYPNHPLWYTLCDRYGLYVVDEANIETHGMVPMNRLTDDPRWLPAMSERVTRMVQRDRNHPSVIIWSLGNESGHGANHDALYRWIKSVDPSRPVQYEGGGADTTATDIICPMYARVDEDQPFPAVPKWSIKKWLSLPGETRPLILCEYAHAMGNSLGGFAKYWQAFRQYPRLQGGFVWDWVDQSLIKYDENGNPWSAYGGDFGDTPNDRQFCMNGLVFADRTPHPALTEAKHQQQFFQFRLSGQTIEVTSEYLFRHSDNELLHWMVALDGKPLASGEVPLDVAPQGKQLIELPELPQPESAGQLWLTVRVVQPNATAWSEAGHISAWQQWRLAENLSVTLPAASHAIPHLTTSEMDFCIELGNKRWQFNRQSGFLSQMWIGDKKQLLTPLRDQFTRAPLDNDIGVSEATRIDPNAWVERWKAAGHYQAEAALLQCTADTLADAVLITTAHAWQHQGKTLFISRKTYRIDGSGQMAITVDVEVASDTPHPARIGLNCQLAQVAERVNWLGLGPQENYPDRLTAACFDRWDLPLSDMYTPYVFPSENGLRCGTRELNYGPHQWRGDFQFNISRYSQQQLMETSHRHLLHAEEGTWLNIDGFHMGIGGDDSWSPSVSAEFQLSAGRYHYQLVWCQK
Chain of Cytochrome P450 2C9 (P11712 whole entry, the tested form may be a part): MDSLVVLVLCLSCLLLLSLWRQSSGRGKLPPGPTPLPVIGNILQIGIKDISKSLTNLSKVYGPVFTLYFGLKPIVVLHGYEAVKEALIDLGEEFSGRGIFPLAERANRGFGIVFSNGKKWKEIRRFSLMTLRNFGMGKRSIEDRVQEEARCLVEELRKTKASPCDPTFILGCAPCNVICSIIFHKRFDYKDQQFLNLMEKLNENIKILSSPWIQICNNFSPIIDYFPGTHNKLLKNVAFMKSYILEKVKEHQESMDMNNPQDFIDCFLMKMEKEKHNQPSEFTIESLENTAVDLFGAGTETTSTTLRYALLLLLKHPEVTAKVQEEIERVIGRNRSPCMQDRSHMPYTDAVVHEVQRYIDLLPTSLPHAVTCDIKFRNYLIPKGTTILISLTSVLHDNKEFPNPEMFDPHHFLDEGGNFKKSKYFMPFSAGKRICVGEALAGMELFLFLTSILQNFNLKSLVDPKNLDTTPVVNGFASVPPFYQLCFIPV
Chain of Nucleotide-binding oligomerization domain-containing protein 2 (Q9HC29 whole entry, the tested form may be a part): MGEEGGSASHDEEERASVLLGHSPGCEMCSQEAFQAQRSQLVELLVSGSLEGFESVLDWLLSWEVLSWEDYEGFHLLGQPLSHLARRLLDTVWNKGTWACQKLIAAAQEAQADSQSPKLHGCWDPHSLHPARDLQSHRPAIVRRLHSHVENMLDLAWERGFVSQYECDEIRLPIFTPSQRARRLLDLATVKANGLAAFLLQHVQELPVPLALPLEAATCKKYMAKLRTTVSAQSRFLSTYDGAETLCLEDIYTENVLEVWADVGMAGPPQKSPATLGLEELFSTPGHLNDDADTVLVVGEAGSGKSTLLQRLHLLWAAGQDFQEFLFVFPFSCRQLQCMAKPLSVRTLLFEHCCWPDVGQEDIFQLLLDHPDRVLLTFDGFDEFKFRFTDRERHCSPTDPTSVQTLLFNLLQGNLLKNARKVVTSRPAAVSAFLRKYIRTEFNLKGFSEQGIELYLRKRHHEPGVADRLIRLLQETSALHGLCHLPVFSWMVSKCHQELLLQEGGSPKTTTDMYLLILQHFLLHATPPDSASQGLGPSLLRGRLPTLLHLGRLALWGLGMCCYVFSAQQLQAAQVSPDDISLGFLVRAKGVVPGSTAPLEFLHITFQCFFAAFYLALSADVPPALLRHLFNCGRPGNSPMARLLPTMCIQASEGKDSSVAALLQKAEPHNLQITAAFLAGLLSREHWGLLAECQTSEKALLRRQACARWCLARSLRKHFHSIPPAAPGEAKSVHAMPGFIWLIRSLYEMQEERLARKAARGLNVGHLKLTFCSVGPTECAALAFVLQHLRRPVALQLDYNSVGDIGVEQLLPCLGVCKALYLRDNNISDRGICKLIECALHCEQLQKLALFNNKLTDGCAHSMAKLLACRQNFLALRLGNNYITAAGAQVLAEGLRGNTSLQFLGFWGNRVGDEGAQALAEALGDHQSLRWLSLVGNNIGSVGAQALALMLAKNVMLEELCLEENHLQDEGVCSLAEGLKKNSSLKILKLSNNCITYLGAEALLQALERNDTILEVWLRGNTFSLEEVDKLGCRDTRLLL

## Oc1ccc(CN2CCN(c3ncccn3)CC2)cc1
[1]
  EC50: 0.496 µM (active)
Mu-type opioid receptor
  EC50: 92.4 µM (inactive)

## CCOC(=O)N1CCN(CC(O)COC2CC(C)CCC2C(C)C)CC1 (centres undefined)
[2]
  IC50: > 9.99 µM (inactive)

## CCOC(=O)C1(CCOc2ccccc2)CCN(C(=O)c2ccc(-n3cccn3)cc2)CC1
Beta-galactosidase
  IC50: > 80 µM (inactive)

## COc1cc2c(cc1NC(=S)NC(=O)/C=C/c1ccco1)oc1ccccc12
Beta-galactosidase
  IC50: > 80 µM (inactive)

## Cc1ccc(S(=O)(=O)NCCn2c(C)cc3ccccc32)cc1
Cytochrome P450 2C9
  AC50: 3.55 µM (inconclusive)
Estrogen receptor
  EC50: 28.7 µM (active)

## O=C(Oc1cccc2cccnc12)c1cccs1
[3]
  EC50: 3.46 µM (active)
[4]
  EC50: 4.38 µM (active)

## Cc1ccc(-c2nn3c(C)nnc3s2)cc1NC(=O)COc1ccc(Cl)cc1
H9c2
  IC50: > 79 µM (inactive)
Estrogen receptor
  EC50: 17.2 µM (active)

## Cc1cc2n(n1)C(c1c[nH]c3ccccc13)Nc1ccccc1-2 (centres undefined)
Streptokinase A
  EC50: 18.1 µM (active)
[5]
  AC50: 6.08 µM (active)
Streptococcus
  EC50: > 150 µM (not active)
[3]
  EC50: 12 µM (active)
[4]
  EC50: 12.9 µM (active)
[6]
  EC50: 8.99 µM (active)

## O=C(COc1ccc(Br)cc1)N1CCN(Cc2ccc3c(c2)OCO3)CC1
Beta-galactosidase
  IC50: > 80 µM (inactive)

## Cc1ccc(-c2csc(N3CCN(CCCn4c(-c5ccncc5)nc5ccccc54)CC3)n2)cc1
HEK293 [7]
  IC50: 4.3 µM (active)
[8]
  CC50: > 40 µM (active)
[9]
  EC50: 12.3 µM (active)
HEK293 [10]
  IC50: 4.62 µM (active)
HEK293 [11]
  IC50: 11.4 µM (active)
HEK293 [12]
  IC50: > 20 µM (inactive)
HEK293 [13]
  EC50: 6.11 µM (active)

## Cc1ccnc(NC(=O)CCNS(=O)(=O)c2ccc(C)c(C)c2)c1
[14]
  EC50: > 67.6 µM (inactive)

## O=C(c1cccc(C(=O)N(c2ccccn2)C2CCCCC2)c1)N(c1ccccn1)C1CCCCC1
[1]
  EC50: 76.1 µM (inactive)
Mu-type opioid receptor
  EC50: 92.5 µM (inactive)

## Cc1ccc(C(=O)CC(SCC(=O)O)c2ccc([N+](=O)[O-])cc2)cc1 (centres undefined)
[8]
  CC50: 30.6 µM (active)

## Cc1cc(OCCOCCNCc2ccccc2)ccc1C(C)C
[15]
  AC50: 1.55 µM (active)
[16]
  CC50: > 40 µM (active)
[17]
  AC50: 1.86 µM (active)
[18]
  AC50: 45.2 µM (active)
[19]
  AC50: 2.26 µM (active)
[20]
  AC50: 4.8 µM (active)

## COc1ccc(C2Nc3ccccc3C(=O)N2NS(C)(=O)=O)c(OC)c1 (centres undefined)
[2]
  IC50: > 1.11 µM (active)

## COc1cccc(-n2cc(CNCc3cn(C)nc3-c3ccccc3F)cn2)c1
[1]
  EC50: 0.772 µM (active)
Mu-type opioid receptor
  EC50: 92.5 µM (inactive)

## CCCC[C@@H]1CNCCN1CCc1cccc2ccccc12
Cells [21]
  EC50: > 29.9 µM (inactive)
Cells [22]
  IC50: > 29.9 µM (inactive)
[23]
  EC50: 4.01 µM (active)
[24]
  IC50: 3.52 µM (active)

## O=[N+]([O-])c1ccc2c(c1)Nc1nc3ccccc3nc1N2
[14]
  EC50: > 67.5 µM (inactive)

## CN(C)C=O.O=C(/C=C/c1cccc(F)c1)Nc1ccc(S(=O)(=O)Nc2ncccn2)cc1
[2]
  IC50: > 9.99 µM (inactive)

## C[C@@H]1CN([C@@H](C)CO)C(=O)c2cccc(NC(=O)c3ccc(-c4nccs4)cc3)c2O[C@H]1CN(C)C(=O)Nc1ccc(C(F)(F)F)cc1
[25]
  AC50: 6.3 µM (active)
[26]
  AC50: 3.55 µM (active)

## Nc1sc2c(c1C(=O)NCCc1ccccc1)CCCC2
Cells [21]
  EC50: > 29.9 µM (inactive)
Cells [22]
  IC50: > 29.9 µM (inactive)
[23]
  EC50: 1.35 µM (active)
[24]
  IC50: 4.88 µM (active)

## O=C(C[C@H]1C[C@@H]2c3cc(NC(=O)c4ccc5c(c4)OCO5)ccc3O[C@@H]2[C@@H](CO)O1)NCc1ccc(Oc2ccccc2)cc1
[25]
  AC50: 28.6 µM (active)

## COc1cc(/C=N/n2c(-c3ccc4c(c3)NC(=O)CO4)cs/c2=N\c2cccc(C)c2)ccc1O
[8]
  CC50: 25 µM (active)

## C/C(=N/NC(=O)c1cc(C(C)C)n[nH]1)c1cccs1
[14]
  EC50: > 67.6 µM (inactive)

## CN(C)c1ccc2c(c1)[C@@H]1C[C@@H](CC(=O)NC3CCCCC3)O[C@@H](CO)[C@@H]1O2
[25]
  AC50: 20.2 µM (active)
